Where a name gives a salt, the structure may show the parent alone. Calls of active or inactive are those of the source.
Assays:
Coagulation factor XII = biological target: T1, Coagulation factor XII (Homo sapiens, UniProt P00748); experiment: Factor XIIa Dose Response Confirmation from Single Well HTS. [Related pubchem assays (depositor defined):AID701]; format: functional
T1 sequence (P00748 whole entry): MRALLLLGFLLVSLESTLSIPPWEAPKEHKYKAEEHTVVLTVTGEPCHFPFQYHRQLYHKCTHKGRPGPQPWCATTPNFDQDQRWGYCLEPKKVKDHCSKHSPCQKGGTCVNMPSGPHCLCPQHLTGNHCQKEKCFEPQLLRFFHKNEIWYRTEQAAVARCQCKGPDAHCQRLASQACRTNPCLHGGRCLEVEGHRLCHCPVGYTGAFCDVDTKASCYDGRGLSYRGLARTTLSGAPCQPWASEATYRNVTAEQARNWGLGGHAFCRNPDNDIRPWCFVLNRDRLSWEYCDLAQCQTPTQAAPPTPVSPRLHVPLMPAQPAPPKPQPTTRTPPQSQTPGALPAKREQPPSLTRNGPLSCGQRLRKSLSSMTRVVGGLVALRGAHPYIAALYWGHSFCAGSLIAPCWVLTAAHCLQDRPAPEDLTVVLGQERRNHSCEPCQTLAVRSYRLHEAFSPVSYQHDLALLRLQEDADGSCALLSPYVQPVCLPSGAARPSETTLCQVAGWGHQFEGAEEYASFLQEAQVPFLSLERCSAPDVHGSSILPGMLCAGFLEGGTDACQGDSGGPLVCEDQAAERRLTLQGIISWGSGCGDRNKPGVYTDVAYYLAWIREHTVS

Nonstructural protein 1 = Nonstructural protein 1 (Influenza A virus, UniProt Q194T2); format: functional, Influenza A virus (A/California/07/2009(H1N1))
[1] = HepG2 cell cytotoxicity, dose response, cytotoxicity control for non-replicating M. tuberculosis project (AID 489018); format: functional; conditions: Mycobacterium tuberculosis
[2] = reduction of Shn3 3'UTR-driven luciferase in osteoblasts – cell-based, Clone20 osteoblasts, firefly luciferase, cherry-picked, dose response (AID 624132); format: functional;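 note: firefly luciferase luminescence from reporter carrying the Shn3 3'UTR in osteoblasts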
Melanocortin receptor 4 = Melanocortin receptor 4 (Homo sapiens, UniProt P32245); format: functional, cell-based;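 note: Cell-based assay with luminescence read-out, confirmatory dose-response testing for agonist activity of biased ligands at MC4R; human U2OS cells with tagged receptor and beta-arrestin; potency of agonists that increase receptor coupling to beta-arrestin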
cells = format: functional
[3] = loss of viability in HepG2 cells – cell-based, CellTiter-Glo, cherry-picked, cytotoxicity control for Shn3 inhibitor project, dose response (AID 624134); format: functional
[4] = THP-1 cell cytotoxicity, dose response, cytotoxicity control for non-replicating M. tuberculosis project (AID 489025); format: functional
[5] = Vero E6 cell cytotoxicity, dose response, cytotoxicity control for non-replicating M. tuberculosis project, secondary assay (AID 492998); format: functional, VeroE6; conditions: Vero C1008
[6] = biological target: T2, Ubiquitin-conjugating enzyme E2 N (Homo sapiens, UniProt P61088); format: functional;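 note: Dose-response confirmation in a TR-FRET assay detecting UBC13-driven polyubiquitin chain formation, inhibition measured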
T2 sequence (P61088 whole entry): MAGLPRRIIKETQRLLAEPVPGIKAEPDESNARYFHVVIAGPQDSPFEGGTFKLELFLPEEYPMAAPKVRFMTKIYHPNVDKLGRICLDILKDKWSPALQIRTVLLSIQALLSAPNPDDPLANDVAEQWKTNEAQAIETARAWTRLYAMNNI

[7] = biological target: 26S proteasome non-ATPase regulatory subunit 14 (Homo sapiens, UniProt O00487); experiment: inhibition of proteasome subunit RPN11 – biochemical, fluorescence polarization, uHTS hits, confirmation (AID 602368); format: functional
[8] = Trypanosoma cruzi growth suppression in host cells – NIH3T3 host cells, beta-gal luminescence, confirmation (AID 2044); format: functional, cell-based;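 note: intracellular parasites grown in NIH/3T3 mouse fibroblasts as host cells; luminescent beta-galactosidase reporter signal from transgenic T. cruzi replicating inside host cells; inhibitors lower the luminescence signal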
[9] = biological target: 72 kDa type IV collagenase (Homo sapiens, UniProt P08253); experiment: Dose Response validation of uHTS RPN11 inhibitor hits using a MMP-2 Fluorescence assay.; format: functional
Prothrombin = Prothrombin (Bos taurus, UniProt P00735); experiment: thrombin protease inhibitors – biochemical, fluorescence polarization, uHTS hits, dose response (AID 602369); format: functional
[10] = NIH3T3 cell viability loss – ATP luminescence, mouse fibroblasts, counter-screen, dose response (AID 2010); format: functional, cell-based;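 note: cells exposed to compound for about 90 hours before reading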
BJ [11] = experiment: growth inhibition of engineered Ras-driven BJ cells – cell-based, alamar blue fluorescence, cherrypicked samples, dose response (AID 2631); format: functional; conditions: Homo sapiens;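 note: confirmatory dose-response assay in RAS-dependent BJ fibroblasts engineered with TERT, LT and ST, with cytotoxicity read by fluorescence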
[12] = biological target: Luciferin 4-monooxygenase (Photinus pyralis, UniProt P08659); experiment: inhibition of purified Photinus pyralis luciferase – biochemical, luminescence, dose response (AID 1891)
BJ [13] = experiment: BJ-TERT-LT-ST fibroblast viability loss – cell-based, RAS-independent, luminescence, dose response (AID 1935); format: functional; conditions: Homo sapiens;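 note: BJ fibroblasts immortalized with TERT plus LT and ST oncogenes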
[14] = HEK-293T viability loss after treatment – luminescence, T-cell screen hits, cytotoxicity control for TCR NF-kB inhibitor project, dose response (AID 489026); format: functional, cell-based;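 note: cells exposed to compound about 14 hours before the viability readout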
BJ [15] = experiment: cells; format: functional, cell-based; conditions: Homo sapiens
BJ [16] = experiment: BJ-TERT fibroblast viability loss – cell-based, RAS-independent, luminescence, dose response (AID 1933); format: functional; conditions: Homo sapiens
Estrogen receptor beta [17] = biological target: T3, Estrogen receptor beta (Homo sapiens, UniProt Q92731);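 note: recombinant ER-beta bound to coactivator SRC1 peptide in presence of estradiol agonist; inhibitors block coactivator peptide binding and lower the FRET signal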
Estrogen receptor beta [18] = biological target: T3, Estrogen receptor beta; experiment: blockers of SRC-3 recruitment to ERβ – biochemical, ELISA, streptavidin-HRP readout, orthogonal assay, confirmation (AID 1060)
[19] = Luminescence Cell-Based Dose Confirmation HTS to Identify Inhibitors of Platelet Dense Granule Release. [Related pubchem assays: 1663 (Primary HTS), 1678 (Summary of Project)]; format: functional
[20] = DRD fibroblast viability loss – cell-based, non-viral oncogenic, luminescence, dose response (AID 1934); format: functional; conditions: Homo sapiens
[21] = Luminescence Cell-Based Dose Response HTS to Identify Activators of Luciferase Translation or Activity in H4 […] Cells. [Related pubchem assays: 1829 (Project Summary), 1814 (Primary HTS)]; format: functional
H4 = experiment: Luminescence Cell-Based Dose Response HTS to Identify Activators of 5'UTR Stem-Loop Driven Prion Protein mRNA Translation in H4 Neuroglioblastoma Cells. [Related pubchem assays: 1829 (Project Summary), 1814 (Primary HTS)]; format: functional; conditions: Homo sapiens
[22] = Luminescence Cell-Based Dose Confirmation HTS to Identify Activators of 5'UTR Stem-Loop Driven Alpha-Synuclein mRNA Translation in H4 Neuroglioblastoma Cells. [Related pubchem assays: 1829 (Project Summary), 1814 (Primary HTS)]; format: functional
[23] = biological target: Eukaryotic translation initiation factor 4E (Mus musculus, UniProt P63073); experiment: blockers of eIF4G binding by eIF4E – biochemical, TR-FRET, dose response (AID 855); format: functional;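 note: potency for disrupting eIF4E binding to eIF4GI seen as loss of FRET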
[24] = biological target: T4, High affinity choline transporter 1 (Homo sapiens, UniProt Q9GZV3); experiment: human choline transporter blockers, potency – cell-based, 5-point CRC, membrane potential dye, dose response (AID 504840); format: functional
T4 sequence (Q9GZV3 whole entry): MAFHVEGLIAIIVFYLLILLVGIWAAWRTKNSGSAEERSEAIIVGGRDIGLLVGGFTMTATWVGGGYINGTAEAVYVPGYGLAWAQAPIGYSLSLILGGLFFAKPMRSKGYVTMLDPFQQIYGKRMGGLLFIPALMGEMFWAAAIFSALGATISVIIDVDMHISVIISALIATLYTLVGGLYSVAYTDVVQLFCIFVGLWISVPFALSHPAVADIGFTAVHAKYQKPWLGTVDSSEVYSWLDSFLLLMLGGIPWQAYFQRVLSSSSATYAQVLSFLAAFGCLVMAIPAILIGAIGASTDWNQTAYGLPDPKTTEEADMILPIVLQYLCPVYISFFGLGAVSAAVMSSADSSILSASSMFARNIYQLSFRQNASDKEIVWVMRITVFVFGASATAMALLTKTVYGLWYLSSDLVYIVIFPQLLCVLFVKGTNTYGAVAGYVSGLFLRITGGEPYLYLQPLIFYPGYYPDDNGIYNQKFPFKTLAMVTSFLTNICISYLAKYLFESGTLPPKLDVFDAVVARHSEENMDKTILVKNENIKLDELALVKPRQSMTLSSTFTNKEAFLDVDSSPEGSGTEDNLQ

[25] = viability of uninfected HEp-2 cells – cell-based, HTS, cytotoxicity control for RSV inhibitor project, dose response (AID 2410); format: functional; conditions: human respiratory syncytial virus
[26] = biological target: G-protein coupled receptor 55 (Homo sapiens, UniProt Q9Y2T6); experiment: inhibition of LPI-stimulated GPR55 beta-arrestin translocation – imaging, U2OS, beta-arrestin-GFP, LPI agonist, primary screen (AID 2013); format: functional;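 note: antagonist potency measured as reduced agonist-driven arrestin aggregation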
Vero [27] = experiment: cells; format: functional; conditions: Chlorocebus sabaeus
HEK293 = experiment: EBV LMP1 TES2 canonical NF-kB signalling blockers – cell-based, HEK293, luciferase, cherry-pick, dose response (AID 588343); format: functional; conditions: Homo sapiens
Vero [28] = experiment: cells; format: functional, cell-based; conditions: Chlorocebus sabaeus
[29] = biological target: Heat shock protein HSP 90-alpha (Homo sapiens, UniProt P07900); format: functional, organism-based
[30] = biological target: T5, Low molecular weight phosphotyrosine protein phosphatase (Homo sapiens, UniProt P24666); format: functional; conditions: read-out: IC50_Mean;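 note: Dose-response confirmation assay measuring inhibition of LMPTP enzyme activity by fluorescence intensity read-out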
T5 sequence (P24666 whole entry): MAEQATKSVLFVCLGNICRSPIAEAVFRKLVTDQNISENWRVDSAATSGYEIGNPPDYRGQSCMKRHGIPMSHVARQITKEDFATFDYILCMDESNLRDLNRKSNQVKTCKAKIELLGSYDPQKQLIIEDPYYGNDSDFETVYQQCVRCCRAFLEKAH

[31] = non-specific 3'UTR reporter inhibition in Clone20-Shn3RL – cell-based, Renilla luciferase, cherry-picked, counter-screen for Shn3 inhibitor project, dose response (AID 624133); format: functional
[32] = Fluorescence-based cell-based high throughput dose response assay for inhibitors of the interaction of nucleotide-binding oligomerization domain containing 2 (NOD2) and the receptor-interacting serine-threonine kinase 2 (RIPK2).; format: functional, Homo sapiens; conditions: Homo sapiens

Nonstructural protein 1, sequence (Q194T2 whole entry): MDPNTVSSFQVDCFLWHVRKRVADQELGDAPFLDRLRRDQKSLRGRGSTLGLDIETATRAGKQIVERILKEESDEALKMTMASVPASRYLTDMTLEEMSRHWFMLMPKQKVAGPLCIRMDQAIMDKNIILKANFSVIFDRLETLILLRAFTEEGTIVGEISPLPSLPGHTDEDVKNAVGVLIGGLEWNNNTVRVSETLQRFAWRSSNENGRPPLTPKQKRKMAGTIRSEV
26S proteasome non-ATPase regulatory subunit 14, sequence (O00487 whole entry): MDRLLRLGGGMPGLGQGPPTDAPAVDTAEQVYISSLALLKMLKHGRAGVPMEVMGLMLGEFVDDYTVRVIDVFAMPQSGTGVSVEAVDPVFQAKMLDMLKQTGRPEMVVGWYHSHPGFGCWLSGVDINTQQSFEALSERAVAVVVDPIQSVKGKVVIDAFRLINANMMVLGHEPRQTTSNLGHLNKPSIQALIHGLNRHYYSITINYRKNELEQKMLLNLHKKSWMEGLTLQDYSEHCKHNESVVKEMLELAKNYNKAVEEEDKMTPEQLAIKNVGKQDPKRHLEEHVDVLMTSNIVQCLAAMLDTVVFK
72 kDa type IV collagenase, sequence (P08253 whole entry): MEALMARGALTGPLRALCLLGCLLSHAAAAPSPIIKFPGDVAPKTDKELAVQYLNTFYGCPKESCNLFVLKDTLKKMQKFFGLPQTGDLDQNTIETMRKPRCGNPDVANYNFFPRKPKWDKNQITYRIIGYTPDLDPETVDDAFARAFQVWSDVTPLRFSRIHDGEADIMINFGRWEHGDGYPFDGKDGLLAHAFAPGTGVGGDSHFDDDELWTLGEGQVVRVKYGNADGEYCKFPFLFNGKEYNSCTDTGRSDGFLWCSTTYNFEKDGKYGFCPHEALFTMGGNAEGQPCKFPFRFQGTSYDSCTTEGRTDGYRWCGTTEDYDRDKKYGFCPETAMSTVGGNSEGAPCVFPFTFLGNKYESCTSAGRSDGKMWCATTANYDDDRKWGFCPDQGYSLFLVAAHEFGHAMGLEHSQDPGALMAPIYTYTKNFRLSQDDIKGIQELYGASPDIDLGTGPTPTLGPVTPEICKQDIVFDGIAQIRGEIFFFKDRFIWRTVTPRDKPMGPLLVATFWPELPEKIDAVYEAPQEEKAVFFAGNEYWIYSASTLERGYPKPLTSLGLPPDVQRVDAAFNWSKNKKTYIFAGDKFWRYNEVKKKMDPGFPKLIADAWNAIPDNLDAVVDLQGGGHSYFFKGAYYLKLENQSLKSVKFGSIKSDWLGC
T3 sequence (Q92731 whole entry): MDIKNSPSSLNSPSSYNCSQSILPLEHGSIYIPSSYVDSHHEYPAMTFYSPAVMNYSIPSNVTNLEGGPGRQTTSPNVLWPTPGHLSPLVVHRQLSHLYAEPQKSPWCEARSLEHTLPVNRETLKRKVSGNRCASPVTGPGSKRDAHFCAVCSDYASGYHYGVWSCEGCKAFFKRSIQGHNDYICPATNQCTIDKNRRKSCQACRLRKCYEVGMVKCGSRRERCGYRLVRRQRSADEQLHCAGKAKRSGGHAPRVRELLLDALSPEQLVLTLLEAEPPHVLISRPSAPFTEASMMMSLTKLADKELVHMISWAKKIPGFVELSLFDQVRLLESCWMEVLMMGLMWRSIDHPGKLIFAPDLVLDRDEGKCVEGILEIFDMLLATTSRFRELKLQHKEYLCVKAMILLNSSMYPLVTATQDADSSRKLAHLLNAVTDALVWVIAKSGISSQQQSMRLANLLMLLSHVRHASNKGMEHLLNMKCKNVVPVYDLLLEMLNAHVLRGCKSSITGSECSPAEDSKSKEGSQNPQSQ
G-protein coupled receptor 55, sequence (Q9Y2T6 whole entry): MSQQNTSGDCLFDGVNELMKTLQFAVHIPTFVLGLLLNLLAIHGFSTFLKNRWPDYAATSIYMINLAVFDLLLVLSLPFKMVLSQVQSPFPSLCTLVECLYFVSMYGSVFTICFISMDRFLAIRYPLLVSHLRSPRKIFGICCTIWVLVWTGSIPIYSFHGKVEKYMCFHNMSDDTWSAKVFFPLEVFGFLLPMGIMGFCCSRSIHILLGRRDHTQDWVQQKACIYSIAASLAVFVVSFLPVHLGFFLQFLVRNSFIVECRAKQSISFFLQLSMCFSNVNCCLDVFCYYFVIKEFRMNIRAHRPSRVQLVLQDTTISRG
Luciferin 4-monooxygenase, sequence (P08659 whole entry): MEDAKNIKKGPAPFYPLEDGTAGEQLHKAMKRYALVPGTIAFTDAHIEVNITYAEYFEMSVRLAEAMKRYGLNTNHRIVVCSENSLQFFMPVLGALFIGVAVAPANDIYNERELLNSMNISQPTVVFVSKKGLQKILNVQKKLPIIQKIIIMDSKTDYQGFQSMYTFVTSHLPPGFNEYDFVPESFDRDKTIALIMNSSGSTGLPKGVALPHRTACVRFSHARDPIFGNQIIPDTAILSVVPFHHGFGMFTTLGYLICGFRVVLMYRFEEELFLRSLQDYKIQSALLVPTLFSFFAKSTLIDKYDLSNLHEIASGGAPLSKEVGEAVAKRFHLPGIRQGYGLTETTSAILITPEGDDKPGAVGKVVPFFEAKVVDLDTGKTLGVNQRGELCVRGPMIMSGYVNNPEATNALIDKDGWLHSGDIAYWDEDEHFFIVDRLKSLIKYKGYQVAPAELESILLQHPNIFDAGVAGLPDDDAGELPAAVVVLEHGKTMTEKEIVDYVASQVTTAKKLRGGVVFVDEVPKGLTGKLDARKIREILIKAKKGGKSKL
Eukaryotic translation initiation factor 4E, sequence (P63073 whole entry): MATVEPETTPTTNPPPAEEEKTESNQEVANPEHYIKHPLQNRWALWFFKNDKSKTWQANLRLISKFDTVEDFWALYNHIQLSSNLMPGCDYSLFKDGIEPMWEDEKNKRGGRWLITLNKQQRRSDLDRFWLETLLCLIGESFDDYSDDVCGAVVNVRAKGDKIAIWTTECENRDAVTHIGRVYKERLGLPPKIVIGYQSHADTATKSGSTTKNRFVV
Melanocortin receptor 4, sequence (P32245 whole entry): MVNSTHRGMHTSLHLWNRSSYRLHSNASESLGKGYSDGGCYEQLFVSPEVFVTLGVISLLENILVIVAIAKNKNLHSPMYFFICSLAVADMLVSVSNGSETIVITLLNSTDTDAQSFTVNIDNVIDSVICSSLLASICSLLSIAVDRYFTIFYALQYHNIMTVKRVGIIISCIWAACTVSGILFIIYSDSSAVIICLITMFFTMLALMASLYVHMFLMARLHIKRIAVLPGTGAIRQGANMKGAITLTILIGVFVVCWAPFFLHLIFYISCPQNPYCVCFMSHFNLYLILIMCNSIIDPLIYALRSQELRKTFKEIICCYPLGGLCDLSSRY

For `O=C(c1ccccc1)N1CCCC(c2nc(O)c3nnn(Cc4ccccc4)c3n2)C1` (stereo not given), the IC50 (Coagulation factor XII) was > 50 µM (inactive).
In the case of `CCc1ccc(OCCNc2cc(N3CCNC(C)C3)ccc2[N+](=O)[O-])cc1` (stereo not given), the IC50 (Nonstructural protein 1) is reported as 37.4 µM (active), the CC50 [1] is reported as 12.4 µM (active) and the AC50 [2] is reported as 15.6 µM (active). The EC50 (Melanocortin receptor 4) was > 89.2 µM (inactive), the IC50 (cells) was 24 µM (active) and the AC50 [3] was 7.97 µM (active). For the same molecule, the CC50 [4] was 12.4 µM (active), the CC50 [5] was 13.9 µM (active) and the IC50 [6] was > 20 µM (inactive).
In the case of `Cc1ccc(-c2ccc(/C=C3\SC(N4CCOCC4)=NC3=O)o2)cc1`, the IC50 [7] is reported as 9.69 µM (active), the EC50 [8] is reported as 0.655 µM (active) and the IC50 [9] is reported as > 100 µM (inactive). The IC50 (Prothrombin) was 7.72 µM (active) and the EC50 [10] was 17.1 µM (active).
With `c1ccc(-c2noc(-c3ccc4c(c3)OCO4)n2)nc1` the EC50 (BJ [11]) was > 133 µM (inactive), the EC50 [12] was 0.105 µM (active) and the EC50 (BJ [13]) was 6.29 µM (inconclusive). For the same molecule, the IC50 [14] was > 80 µM (inactive), the EC50 (BJ [15]) was 1.47 µM (active) and the EC50 (BJ [16]) was 2.1 µM (inconclusive). The IC50 (Estrogen receptor beta [17]) was 37.8 µM (not active), the IC50 (Estrogen receptor beta [18]) was > 109 µM (not active) and the EC50 [19] was 1.1 µM (active). For the same molecule, the EC50 [20] was 1.67 µM (active).
With `O=C(OCC(=O)c1c[nH]c2ccccc12)c1cccc(O)c1` the EC50 [21] was 12.3 µM (active), the EC50 (H4) was 8.02 µM (active) and the EC50 [22] was 5.16 µM (active). The IC50 [23] was > 64 µM (inactive) and the IC50 [24] was 15.8 µM (active).
For `O=C(Nc1nc2n(n1)C(c1ccc(Cl)cc1)CC(c1ccc(Cl)cc1)N2)c1ccco1` (stereo not given), the IC50 (Coagulation factor XII) was > 50 µM (inactive) and the CC50 [25] was 12.8 µM (active).
For `CC(=O)c1ccc(OC(=O)c2ccc(Br)o2)cc1`, the IC50 (Coagulation factor XII) was 18.5 µM (active).
For `CCc1ccc(C(=O)NC(=S)Nc2ccccc2N2CCOCC2)cc1`, the IC50 [26] was 1.2 µM (active).
With `CCOC(=O)c1cnc2c(c(C)nn2C)c1Oc1ccc(Cl)cc1` the IC50 [26] was 3.54 µM (active).
With `CC(=NNc1nc2ccccc2s1)c1ncccn1` the IC50 (Nonstructural protein 1) was 5.05 µM (active), the CC50 (Vero [27]) was 9.06 µM (active) and the AC50 (HEK293) was 14 µM (active). The IC50 (Vero [28]) was > 25 µM (active) and the AC50 [29] was 1.61 µM (active).
With `O=C(NCc1ccccn1)c1cn(CCc2ccccc2)nn1` the IC50 (Coagulation factor XII) was > 50 µM (inactive).
With `CCN(C(C)=O)c1cnc(C=NNC(N)=S)c2ccccc12` the IC50 (Nonstructural protein 1) was 6.69 µM (active).
In the case of `CC(C1SC(=S)NC1=O)C1SC(=S)NC1=O` (stereo not given), the IC50 [7] is reported as 45.4 µM (active), the IC50 [9] is reported as > 100 µM (inactive) and the IC50 [30] is reported as 80 µM (inactive). For the same molecule, the IC50 (Prothrombin) was 52.4 µM (active).
With `CCN(CC)CCN1C(=O)/C(=C\c2ccc(Cl)c([N+](=O)[O-])c2)S/C1=N\c1ccc(OC)cc1` the EC50 (BJ [11]) was 0.537 µM (active), the CC50 (Vero [27]) was 15.7 µM (active) and the EC50 (BJ [13]) was 1.65 µM (active). For the same molecule, the AC50 [31] was 10.4 µM (active), the EC50 (BJ [15]) was 4.01 µM (active) and the EC50 (BJ [16]) was 2.1 µM (active). For the same molecule, the AC50 [2] was 2.11 µM (active), the AC50 [3] was 16.8 µM (active) and the EC50 [20] was 2.86 µM (active). The IC50 [32] was 2.75 µM (active).
For `CC1(C)CC(=O)C(/C=N/CC2CCN(C(=O)Cc3ccccc3)CC2)=C(O)C1`, the IC50 [7] was > 100 µM (inactive), the IC50 [9] was > 100 µM (inactive) and the IC50 (Prothrombin) was > 100 µM (inactive).
In the case of `OC(CCCN1CCCCC1)(c1ccccc1)c1ccccc1` [DIPHENIDOL HYDROCHLORIDE], the AC50 (HEK293) is reported as 323 µM (active).
